Patent US20040092595A1, “Analgesic agent” (Seiwa Pharmaceuticals, Ltd., priority 2000, published 2004)

Key:
rats = experiment: Acute gastric ulcer test; assay type: in vivo
Description: An acute gastric ulcer test was carried out using sample 2 and indometacin as test drugs. […] By contrast, for sample 2, the same test was carried out, except that, instead of indometacin, sample 2 was orally administered at a dose of 10 to 300 mg/kg.

mice = experiment: Analgesic, anti-inflammatory activity test (formalin test); assay type: in vivo; settings: male ICR mice, 1.0% formalin (20 μl injected), sample 40 mg/kg intraperitoneal, 15 min before stimulation, n=10, average value±standard error; for 1st phase response (0 to 10 min), licking time: control 121.33 ± 5.32; for 2nd phase response (10 to 30 min), licking time: control 183.51 ± 20.10
Description: An analgesic, anti-inflammatory activity test (the so-called “formalin test”) was carried out using samples 1 to 9 as test drugs.
A 1.0% formalin solution (20 μl) was injected as a stimulant into the hypoderm of the planta depis in the hind leg of mice (five-week-old male ICR mice which, after purchase, had been subjected to quarantine and acclimation for one week). An act of licking the hind leg by the mice for alleviating the pain was then successively measured with a stopwatch 5 min by 5 min for 30 min. In this case, for each of the test drugs (samples 1 to 9), a suspension corresponding to a dose of 40 mg/kg was prepared using an aqueous solution of 0.5% polyoxyethylene sorbitan monooleate (Tween 80; a product of Atlas). The suspension (100 μl) for each sample was intraperitoneally administered to the mice 15 min before the stimulation. For a control group, the same volume of 0.5% Tween 80 was intraperitoneally administered to the mice.
It is generally known that the formalin test as described above causes a biphasic response, that is, the following first-phase response and second-phase response.
The first-phase response refers to a response indicated by pain in a 0 to 10 min period after the stimulation with formalin, that is, a response indicated by pain caused by direct stimulation of the sensory nerve at its end upon the injection of formalin. At the present time, only narcotic analgesics such as morphine are known to have inhibitory activity against this first-phase response. On the other hand, the second-phase response refers to a response indicated by pain in a 10 to 30 min period after the stimulation with formalin, that is, a response indicated by pain attributable to inflammation caused upon the injection of formalin. This response can be inhibited by conventional analgesics such as aspirin.
The analgesic, anti-inflammatory activity was evaluated in two separate phases, a phase from 0 min to 10 min after the administration and a phase from 10 min to 30 min after the administration. For each of the phases, the total number of seconds for which the mouse licked the hind leg (licking time) was calculated, and this value was compared with the value for the control.

| SMILES | occurrence of a gastric ulcer (rats; orally administered at a dose of 10 to 300 mg/kg, same test as for indometacin) | 1st phase response (0 to 10 min), licking time (mice) [s] | 2nd phase response (10 to 30 min), licking time (mice) [s] | occurrence of a gastric ulcer (rats; orally administered at a dose of not less than 50 mg/kg, seven hr after the administration) |
| --- | --- | --- | --- | --- |
| O=C(O)C1C(c2ccc(O)cc2)C(C(=O)O)C1c1ccc(O)cc1 (stereo not drawn) [Sample 2, 4,4′-dihydroxy-α-truxillic acid] | an ulcer did not occur at all | 102.34 ± 4.09 | 7.12 ± 3.29 | – |
| O=C(O)C1C(C(=O)O)C(c2ccc(Cl)cc2)C1c1ccc(Cl)cc1 (stereo not drawn) [Sample 6, 4,4′-dichloro-β-truxinic acid] | – | 59.37 ± 6.04 | 34.44 ± 9.13 | – |
| COc1ccc2c(c1)c(CC(=O)O)c(C)n2C(=O)c1ccc(Cl)cc1 [indometacin, reference compound] | – | – | – | the occurrence of a gastric ulcer was clearly learned |
| O=C(O)C1C(C(=O)O)C(c2ccccc2)C1c1ccccc1 (stereo not drawn) [Sample 4, β-truxinic acid] | – | 59.40 ± 7.19 | 74.75 ± 11.94 | – |
| COC(=O)C1C(c2ccc(O)cc2)C(C(=O)OC)C1c1ccc(O)cc1 (stereo not drawn) [Sample 8, dimethyl 4,4′-dihydroxy-α-truxillate] | – | 89.65 ± 4.67 | 122.70 ± 7.16 | – |
